Results as given in BindingDB's records for doi:10.1016/j.bmc.2007.04.026 (University of Ferrara, 2007).
Where a SMILES comes first, the peptide text is derived from it. [ ]: non-standard residue; d: D form. ξ: configuration not given here. Phe(4-F) = N[C@@H](Cc1ccc(F)cc1)C(=O)O; Aib = CC(C)(N)C(=O)O; ξDap = NCC(N)C(=O)O

How the values were obtained:
Nociceptin receptor [1] = target: Nociceptin receptor (Cavia porcellus, UniProt P47748); test: Antagonist activity at NOP receptor in Albino guinea pig ileum assessed as effect on electrically stimulated contractions
Nociceptin receptor (Cavia porcellus, UniProt P47748), sequence (P47748 whole entry): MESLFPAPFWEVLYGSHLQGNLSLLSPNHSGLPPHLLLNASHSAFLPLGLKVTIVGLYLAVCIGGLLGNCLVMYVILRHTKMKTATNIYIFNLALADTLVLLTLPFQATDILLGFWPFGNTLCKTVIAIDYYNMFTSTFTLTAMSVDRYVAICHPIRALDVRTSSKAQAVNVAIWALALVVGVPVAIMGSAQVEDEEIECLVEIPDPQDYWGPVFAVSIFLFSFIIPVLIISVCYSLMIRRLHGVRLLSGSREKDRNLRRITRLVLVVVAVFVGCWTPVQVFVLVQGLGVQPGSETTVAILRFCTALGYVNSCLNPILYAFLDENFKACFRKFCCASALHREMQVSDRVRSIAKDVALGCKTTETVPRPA

Nociceptin receptor [2] = target: Nociceptin receptor (Rattus norvegicus, UniProt P35370); test: Antagonist activity at NOP receptor in Sprague-Dawley rat vas deferens assessed as effect on electrically stimulated contractions
Nociceptin receptor (Rattus norvegicus, UniProt P35370), sequence (P35370 whole entry): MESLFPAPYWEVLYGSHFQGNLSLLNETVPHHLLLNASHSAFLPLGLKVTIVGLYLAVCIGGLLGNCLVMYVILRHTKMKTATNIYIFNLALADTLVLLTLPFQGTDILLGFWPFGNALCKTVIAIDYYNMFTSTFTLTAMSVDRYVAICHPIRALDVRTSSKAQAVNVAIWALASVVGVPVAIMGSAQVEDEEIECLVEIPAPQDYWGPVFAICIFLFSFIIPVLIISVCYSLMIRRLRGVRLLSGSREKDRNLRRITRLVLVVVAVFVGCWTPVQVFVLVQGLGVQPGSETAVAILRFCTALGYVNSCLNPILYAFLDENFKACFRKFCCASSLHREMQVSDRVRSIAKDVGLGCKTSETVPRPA

Nociceptin receptor [3] = target: Nociceptin receptor (Mus musculus, UniProt P35377); test: Antagonist activity at NOP receptor in Swiss mouse vas deferens […]
Nociceptin receptor (Mus musculus, UniProt P35377), sequence (P35377 whole entry): as the sequence (P35370 whole entry) above, with Y9F, S335A counted along it

`C[C@H](NC(=O)[C@H](CO)NC(=O)[C@H](CCCCN)NC(=O)[C@H](CCCN=C(N)N)NC(=O)C(C)(C)NC(=O)CNC(=O)[C@@H](NC(=O)[C@H](Cc1ccc(F)cc1)NC(=O)CNC(=O)C(CN)NC(=O)[C@@H](N)Cc1ccccc1)[C@@H](C)O)C(=O)N[C@@H](CCCN=C(N)N)C(=O)N[C@@H](CCCCN)C(=O)N[C@@H](CCCN=C(N)N)C(=O)N[C@@H](CCCCN)C(=O)N[C@@H](CC(N)=O)C(=O)N[C@@H](CCC(N)=O)C(N)=O` (stereo partly drawn) (H-F[ξDap]G[Phe(4-F)]TG[Aib]RKSARKRKNQ-NH2) was tested. Which Kd (Nociceptin receptor [1]) did it give?
Its Kd is 0.316 nM.

And the Kd (Nociceptin receptor [2])?
The Kd was 0.603 nM.

And the Kd (Nociceptin receptor [3])?
Its Kd is 0.794 nM.
